# Results: patent EP4810052A2, “HCRHR2 SELECTIVE POLYPEPTIDES” (Gubra A/S, priority 2023, dated 2026)
# Read-outs that look alike come from different tables or passages of the source. Starred links: 1 amine or outer side, 2 acyl side, 3 side chain; linkers in the order of their positions; H or OH if unused. Non-standard residues stand in square brackets, D forms with d. Residues, ends and D or L forms follow the SMILES beside them. Groups on a side chain read outwards from the residue. *: point of attachment. C20 diacid = O=C(O)CCCCCCCCCCCCCCCCCCC(=O)*; γGlu = O=C(O)[C@H](CCC(=O)[*:2])N[*:1]; NMeI = CC[C@H](C)[C@H](NC)C(=O)O; Nle = CCCC[C@H](N)C(=O)O; AEEA = NCCOCCOCC(=O)O; Aib = CC(C)(N)C(=O)O
# What was measured:
# hCRHR2 = target: T1, hCRHR2 (Homo sapiens, UniProt Q13324); assay: HTRF cAMP assay, determination of hCRHR2 potency (peptide libraries 5 conc., purified peptides 11 conc.); assay type: cell-based
# T1 sequence (Q13324 1-411): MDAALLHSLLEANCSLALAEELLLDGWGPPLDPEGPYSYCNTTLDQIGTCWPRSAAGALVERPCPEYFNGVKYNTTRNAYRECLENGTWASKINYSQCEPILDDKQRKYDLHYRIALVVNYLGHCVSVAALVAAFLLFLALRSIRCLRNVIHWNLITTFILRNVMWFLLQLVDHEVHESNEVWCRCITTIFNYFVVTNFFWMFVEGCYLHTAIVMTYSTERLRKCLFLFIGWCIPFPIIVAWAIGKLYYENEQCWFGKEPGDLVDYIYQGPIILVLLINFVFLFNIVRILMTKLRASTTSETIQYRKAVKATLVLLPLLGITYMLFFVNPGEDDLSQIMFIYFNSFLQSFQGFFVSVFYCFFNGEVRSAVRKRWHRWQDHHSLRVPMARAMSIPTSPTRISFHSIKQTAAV
# Summary of the method: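 Frozen stocks of hCRHR2-expressing CHO-K1 cells, thawed just before testing, received peptide agonists in suspension; cAMP quantified by competitive HTRF immunoassay, with curves fitted by nonlinear regression (variable slope) for EC50.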
# hCRHR1 = target: T2, hCRHR1 (Homo sapiens, UniProt P34998); assay: HTRF cAMP assay, determination of hCRHR1 potency (peptide libraries 5 conc., purified peptides 11 conc.); assay type: cell-based
# T2 sequence (P34998 24-415): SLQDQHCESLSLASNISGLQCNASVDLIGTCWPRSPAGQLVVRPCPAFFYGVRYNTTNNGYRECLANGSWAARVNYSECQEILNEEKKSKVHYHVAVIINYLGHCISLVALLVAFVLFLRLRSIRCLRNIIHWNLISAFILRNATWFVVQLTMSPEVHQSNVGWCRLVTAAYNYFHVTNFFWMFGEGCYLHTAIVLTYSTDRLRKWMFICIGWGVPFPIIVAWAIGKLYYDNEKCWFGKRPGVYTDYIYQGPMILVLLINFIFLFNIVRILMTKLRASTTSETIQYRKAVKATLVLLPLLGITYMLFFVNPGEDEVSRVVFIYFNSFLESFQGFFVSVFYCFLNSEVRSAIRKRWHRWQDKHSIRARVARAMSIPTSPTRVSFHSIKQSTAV
# Summary of the method: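 Cellular cAMP was read by time-resolved FRET between d2-labelled cAMP and cryptate anti-cAMP antibody. The cells were freshly thawed suspension CHO-K1 cells stably expressing human CRHR1.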
"EC50 (hCRHR2; Table 4, library peptides having X^38 = Nle, read-out: hCRHR2 pEC50 (converted)) [nM]","EC50 (hCRHR1; Table 4, library peptides having X^38 = Nle, read-out: hCRHR1 pEC50 (converted)) [nM]",SMILES,EC50 (hCRHR2) [nM],EC50 (hCRHR1) [nM]
–,–,CCCC[C@H](NC(=O)[C@@H](NC(=O)[C@H](CCC(=O)O)NC(=O)[C@H](C)NC(=O)[C@H](CC(N)=O)NC(=O)[C@@H](NC(=O)[C@H](CCCCNC(=O)COCCOCCNC(=O)COCCOCCNC(=O)CC[C@H](NC(=O)CC[C@H](NC(=O)CCCCCCCCCCCCCCCCCCC(=O)O)C(=O)O)C(=O)O)NC(=O)[C@H](C)NC(=O)[C@H](CCCNC(=N)N)NC(=O)[C@H](CCC(=O)O)NC(=O)[C@H](CCCNC(=N)N)NC(=O)[C@H](C)NC(=O)[C@H](C)NC(=O)[C@H](CCCNC(=N)N)NC(=O)[C@H](C)NC(=O)[C@H](CCCNC(=N)N)NC(=O)[C@H](C)NC(=O)[C@H](CCC(N)=O)NC(=O)[C@H](CCC(=O)O)NC(=O)[C@H](CC(C)C)NC(=O)[C@H](CC(C)C)NC(=O)[C@@H](NC(=O)[C@H](CCC(N)=O)NC(=O)[C@H](CC(C)C)NC(=O)[C@H](CC(C)C)NC(=O)CNC(=O)[C@@H](NC(=O)[C@@H]1CCCN1C(=O)[C@@H](NC(=O)[C@H](CC(=O)O)NC(=O)[C@H](CC(C)C)NC(=O)[C@H](CO)NC(=O)[C@H](CC(C)C)NC(=O)[C@@H](NC(=O)[C@@H](N)[C@@H](C)CC)C(C)C)C(C)C)[C@@H](C)CC)[C@@H](C)CC)[C@@H](C)O)[C@@H](C)CC)C(=O)N[C@@H](C)C(=O)N[C@@H](CCC(=O)O)C(=O)N[C@H](C(N)=O)C(C)C [compound 67] (H-IVLSLDVPIGLLQILLEQARARAARERAK([AEEA-AEEA-γGlu-γGlu-C20 diacid])TNAEI[Nle]AEV-NH2),0.126,2000
0.00501,794,CCCC[C@H](NC(=O)[C@@H](NC(=O)[C@H](CCC(=O)O)NC(=O)[C@H](C)NC(=O)[C@H](CC(N)=O)NC(=O)C(C)(C)NC(=O)[C@H](CCCCNC(=O)COCCOCCNC(=O)COCCOCCNC(=O)CC[C@H](NC(=O)CC[C@H](NC(=O)CCCCCCCCCCCCCCCCCCC(=O)O)C(=O)O)C(=O)O)NC(=O)[C@H](C)NC(=O)[C@H](CCC(N)=O)NC(=O)[C@H](CCC(=O)O)NC(=O)[C@H](CCCNC(=N)N)NC(=O)[C@H](C)NC(=O)[C@H](C)NC(=O)[C@H](CCCNC(=N)N)NC(=O)[C@H](C)NC(=O)[C@H](CCCNC(=N)N)NC(=O)[C@H](C)NC(=O)[C@H](CCC(N)=O)NC(=O)CNC(=O)[C@H](CC(C)C)NC(=O)[C@H](CC(C)C)NC(=O)[C@@H](NC(=O)[C@H](CCC(N)=O)NC(=O)[C@H](CC(C)C)NC(=O)[C@H](CC(C)C)NC(=O)CNC(=O)[C@@H](NC(=O)[C@@H]1CCCN1C(=O)[C@@H](NC(=O)[C@H](CC(=O)O)NC(=O)[C@H](CC(C)C)NC(=O)[C@H](CO)NC(=O)[C@H](CC(C)C)NC(=O)[C@@H](NC(=O)[C@@H](NC)[C@@H](C)CC)C(C)C)C(C)C)[C@@H](C)CC)[C@@H](C)CC)[C@@H](C)CC)C(=O)N[C@@H](C)C(=O)N[C@@H](CCC(=O)O)C(=O)N[C@H](C(N)=O)C(C)C [compound 123] (H-[NMeI]VLSLDVPIGLLQILLGQARARAAREQAK([AEEA-AEEA-γGlu-γGlu-C20 diacid])[Aib]NAEI[Nle]AEV-NH2),–,–
